According to US20150133426A1, “SUBSTITUTED PYRROLOPYRIMIDINES” (BAYER PHARMA AKTIENGESELLSCHAFT, priority 2012, published 2015):
pIC50: −log10 of the molar value.

Target: T1, human full-length MKNK1 (Homo sapiens, UniProt Q9BUB5, T385D)
T1 construct: purchased Carna Biosciences 02-145; host or cells: insect cells, baculovirus expression system
Test: MKNK1 kinase high ATP assay (TR-FRET)
Assay type: biochemical
Details: high ATP (2 mM), 15 min preincubation with enzyme, GST-MKNK1 (T344D)
In short: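 GST-tagged full-length human MKNK1 (aa 1-424, T344D), baculovirus-expressed, preincubated 15 min with compound, then reacted 30 min at 22 °C with 2 mM ATP and 0.06 µM biotinylated peptide (final).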

T1 sequence (Q9BUB5 1-424 isoform Q9BUB5-2 T344D): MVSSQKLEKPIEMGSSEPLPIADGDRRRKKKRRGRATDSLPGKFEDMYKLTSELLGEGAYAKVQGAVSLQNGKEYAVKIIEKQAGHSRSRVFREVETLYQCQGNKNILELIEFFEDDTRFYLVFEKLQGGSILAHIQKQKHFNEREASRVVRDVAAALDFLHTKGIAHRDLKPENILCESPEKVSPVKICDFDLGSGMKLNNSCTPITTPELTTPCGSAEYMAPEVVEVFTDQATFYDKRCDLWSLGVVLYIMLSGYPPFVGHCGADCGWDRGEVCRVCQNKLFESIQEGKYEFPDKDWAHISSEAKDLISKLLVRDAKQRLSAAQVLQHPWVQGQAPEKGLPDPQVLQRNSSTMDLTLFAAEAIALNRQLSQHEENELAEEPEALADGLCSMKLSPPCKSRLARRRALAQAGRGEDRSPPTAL

pIC50 | SMILES
7.32 | COCC1(OC)CCc2[nH]c3ncnc(Nc4cc5cn[nH]c5cc4OC)c3c2C1 (racemic) [Example 136]
5.81 | O=[N+]([O-])c1ccc2c(c1)CCN2c1ncnc2[nH]c3c(c12)CCCC3 [Example 123]
7.06 | CCNC(=O)C1CCc2[nH]c3ncnc(Nc4ccccc4OC4CCCC4)c3c2C1 (racemic) [Example 190, (RS)-4-{[2-(Cyclopentyloxy)phenyl]amino}-N-ethyl-6,7,8,9-tetrahydro-5H-pyrimido[4,5-b]indole-6-carboxamide]
6.04 | CNC(=O)C1CCc2[nH]c3ncnc(N4CCc5ccccc54)c3c2C1 (racemic) [Example 212, (RS)-4-(2,3-Dihydro-1H-indol-1-yl)-N-methyl-6,7,8,9-tetrahydro-5H-pyrimido[4,5-b]indole-6-carboxamide]
7.44 | CS(=O)(=O)CCCNC(=O)C1CCc2[nH]c3ncnc(Nc4ccc(F)cc4OCCO)c3c2C1 (racemic) [Example 159, (RS)-4-{[4-Fluoro-2-(2-hydroxyethoxy)phenyl]amino}-N-[3-(methylsulfonyl)propyl]-6,7,8,9-tetrahydro-5H-pyrimido[4,5-b]indole-6-carboxamide]
5.05 | O=C(O)C1CCc2[nH]c3ncnc(N4CCc5ccccc54)c3c2C1 (racemic) [Example 185, (RS)-4-(2,3-Dihydro-1H-indol-1-yl)-6,7,8,9-tetrahydro-5H-pyrimido[4,5-b]indole-6-carboxylic acid]
8.00 | COc1ccc(Cl)cc1Nc1ncnc2[nH]c3c(c12)CC(C(=O)NCCCS(C)(=O)=O)CC3 (racemic) [Example 149, (RS)-4-[(5-Chloro-2-methoxyphenyl)amino]-N-[3-(methylsulfonyl)propyl]-6,7,8,9-tetrahydro-5H-pyrimido[4,5-b]indole-6-carboxamide]
6.59 | CC(C)Oc1cc(F)ccc1Nc1ncnc2[nH]c3c(c12)CCCCC3 [Example 4, N-(4-Fluoro-2-isopropoxyphenyl)-5,6,7,8,9,10-hexahydrocyclohepta[4,5]pyrrolo[2,3-d]pyrimidin-4-amine]
5.22 | CCOC(=O)C1CCc2[nH]c3ncnc(Nc4cc(F)ccc4OC)c3c2C1 (racemic) [Example 171, (RS)-Ethyl 4-[(5-fluoro-2-methoxyphenyl)amino]-6,7,8,9-tetrahydro-5H-pyrimido[4,5-b]indole-6-carboxylate]
5.03 | CNS(=O)(=O)c1ccc(Nc2ncnc3[nH]c4c(c23)CC(C(=O)NCCCS(C)(=O)=O)CC4)cc1 (racemic) [Example 41, (RS)-4-{[4-(Methylsulfamoyl)phenyl]amino}-N-[3-(methylsulfonyl)propyl]-6,7,8,9-tetrahydro-5H-pyrimido[4,5-b]indole-6-carboxamide]
8.30 | CC(C)Oc1cc2[nH]ncc2cc1Nc1ncnc2[nH]c3c(c12)CCCC3 [Example 126]
6.76 | O=C(NC1CC1)C1CCc2[nH]c3ncnc(Nc4ccccc4N4CCOCC4)c3c2C1 (racemic) [Example 203, (RS)—N-Cyclopropyl-4-{[2-(morpholin-4-yl)phenyl]amino}-6,7,8,9-tetrahydro-5H-pyrimido[4,5-b]indole-6-carboxamide]
7.23 | COc1ccc(F)cc1Nc1ncnc2[nH]c3c(c12)CC(C(=O)NCCCS(C)(=O)=O)CC3 (racemic) [Example 39, (RS)-4-[(5-Fluoro-2-methoxyphenyl)amino]-N-[3-(methylsulfonyl)propyl]-6,7,8,9-tetrahydro-5H-pyrimido[4,5-b]indole-6-carboxamide]
6.65 | COc1cc2[nH]c(=O)[nH]c2cc1Nc1ncnc2[nH]c3c(c12)CC(C(=O)NCCCS(C)(=O)=O)CC3 (racemic) [Example 164, (RS)-4-[(6-Methoxy-2-oxo-2,3-dihydro-1H-benzimidazol-5-yl)amino]-N-[3-(methylsulfonyl)propyl]-6,7,8,9-tetrahydro-5H-pyrimido[4,5-b]indole-6-carboxamide]
5.37 | Clc1ccc2c(c1)CCN2c1ncnc2[nH]c3c(c12)CCCC3 [Example 122]
7.62 | COc1cc(Cl)c(Cl)cc1Nc1ncnc2[nH]c3c(c12)CC(C(=O)O)CC3 (racemic) [Example 18, (RS)-4-[(4,5-Dichloro-2-methoxyphenyl)amino]-6,7,8,9-tetrahydro-5H-pyrimido[4,5-b]indole-6-carboxylic acid]
9.00 | CC(C)Oc1cc2[nH]ncc2cc1Nc1ncnc2[nH]c3c(c12)CC(C(=O)NCCCS(C)(=O)=O)CC3 (racemic) [Example 230, (RS)—N-[3-(Methylsulfonyl)propyl]-4-{[6-(propan-2-yloxy)-1H-indazol-5-yl]amino}-6,7,8,9-tetrahydro-5H-pyrimido[4,5-b]indole-6-carboxamide]
6.72 | CS(=O)(=O)CCCNC(=O)C1CCc2[nH]c3ncnc(Nc4ccccc4OCC4CC4)c3c2C1 (racemic) [Example 151, (RS)-4-{[2-(Cyclopropylmethoxy)phenyl]amino}-N-[3-(methylsulfonyl)propyl]-6,7,8,9-tetrahydro-5H-pyrimido[4,5-b]indole-6-carboxamide]
6.98 | COc1ccc(Cl)cc1Nc1ncnc2[nH]c3c(c12)CCCC3 [Example 125]

pIC50 | SMILES
6.35 | COc1cc(F)c(Cl)cc1Nc1ncnc2[nH]c3c(c12)CC(C(=O)NCCCS(C)(=O)=O)CC3 (racemic) [Example 157, (RS)-4-[(5-Chloro-4-fluoro-2-methoxyphenyl)amino]-N-[3-(methylsulfonyl)propyl]-6,7,8,9-tetrahydro-5H-pyrimido[4,5-b]indole-6-carboxamide]
6.90 | COc1ccc(F)cc1Nc1ncnc2[nH]c3c(c12)CCCC3 [Example 108]
5.47 | COc1ccc(C(F)(F)F)cc1Nc1ncnc2[nH]c3c(c12)CC(C(=O)Nc1ccccc1)CC3 (racemic) [Example 214, (RS)-4-{[2-Methoxy-5-(trifluoromethyl)phenyl]amino}-N-phenyl-6,7,8,9-tetrahydro-5H-pyrimido[4,5-b]indole-6-carboxamide]
8.22 | COc1cc2[nH]ncc2cc1Nc1ncnc2[nH]c3c(c12)CCCC3 [Example 112]
≤ 4.70 | COc1ccc(C(F)(F)F)cc1Nc1ncnc2[nH]c3c(c12)CC(F)(F)CC3 [Example 145]
7.74 | CCOC(=O)C1CCc2[nH]c3ncnc(Nc4ccc5[nH]ncc5c4)c3c2C1 (racemic) [Example 5, (RS)-Ethyl 4-(1H-indazol-5-ylamino)-6,7,8,9-tetrahydro-5H-pyrimido[4,5-b]indole-6-carboxylate]
6.15 | CCOC(=O)C1CCc2[nH]c3ncnc(Nc4ccc(F)cc4OC(C)C)c3c2C1 (racemic) [Example 174, (RS)-Ethyl 4-{[4-fluoro-2-(propan-2-yloxy)phenyl]amino}-6,7,8,9-tetrahydro-5H-pyrimido[4,5-b]indole-6-carboxylate]
6.92 | COc1cc(Cl)c(C)cc1Nc1ncnc2[nH]c3c(c12)CC(C(=O)NCCCS(C)(=O)=O)CC3 (racemic) [Example 162, (RS)-4-[(4-Chloro-2-methoxy-5-methylphenyl)amino]-N-[3-(methylsulfonyl)propyl]-6,7,8,9-tetrahydro-5H-pyrimido[4,5-b]indole-6-carboxamide]
7.30 | COCC1(OC)CCc2[nH]c3ncnc(Nc4cc5cn[nH]c5cc4OC(C)C)c3c2C1 (racemic) [Example 231, (RS)-6-Methoxy-6-(methoxymethyl)-N-[6-(propan-2-yloxy)-1H-indazol-5-yl]-6,7,8,9-tetrahydro-5H-pyrimido[4,5-b]indol-4-amine]
6.69 | COCC1(OC)CCc2[nH]c3ncnc(Nc4cc(Cl)ccc4OC)c3c2C1 (racemic) [Example 133]
7.92 | CCNC(=O)C1CCc2[nH]c3ncnc(Nc4cc(Cl)c(Cl)cc4OC)c3c2C1 (racemic) [Example 21, (RS)-4-[(4,5-Dichloro-2-methoxyphenyl)amino]-N-ethyl-6,7,8,9-tetrahydro-5H-pyrimido[4,5-b]indole-6-carboxamide]
≤ 4.70 | Nc1cc(F)c([N+](=O)[O-])cc1Nc1ncnc2[nH]c3c(c12)CCCC3 [Example 109]
6.40 | Cc1cc(=O)oc2cc(Nc3ncnc4[nH]c5c(c34)CC(C(=O)NCCCS(C)(=O)=O)CC5)ccc12 (racemic) [Example 33, (RS)-4-[(4-Methyl-2-oxo-2H-chromen-7-yl)amino]-N-[3-(methylsulfonyl)propyl]-6,7,8,9-tetrahydro-5H-pyrimido[4,5-b]indole-6-carboxamide]
6.11 | COCC1(OC)CCc2[nH]c3ncnc(Nc4ccc(F)cc4OC(C)C)c3c2C1 (racemic) [Example 137]
5.39 | COc1cc(NS(C)(=O)=O)ccc1Nc1ncnc2[nH]c3c(c12)CCCC3 [Example 129]
≤ 4.70 | COc1ccc(N(C)C)cc1Nc1ncnc2[nH]c3c(c12)CC(C(=O)NCCCS(C)(=O)=O)CC3 (racemic) [Example 158, (RS)-4-{[5-(Dimethylamino)-2-methoxyphenyl]amino}-N-[3-(methylsulfonyl)propyl]-6,7,8,9-tetrahydro-5H-pyrimido[4,5-b]indole-6-carboxamide]
5.95 | CS(=O)(=O)CCCNC(=O)C1CCc2[nH]c3ncnc(Sc4ccc5[nH]ncc5c4)c3c2C1 (racemic) [Example 146, (RS)-4-(1H-Indazol-5-ylsulfanyl)-N-[3-(methylsulfonyl)propyl]-6,7,8,9-tetrahydro-5H-pyrimido[4,5-b]indole-6-carboxamide]
8.22 | COc1cc(Cl)c(Cl)cc1Nc1ncnc2[nH]c3c(c12)CC(C(=O)NCCCS(C)(=O)=O)CC3 (racemic) [Example 44, (RS)-4-[(4,5-Dichloro-2-methoxyphenyl)amino]-N-[3-(methylsulfonyl)propyl]-6,7,8,9-tetrahydro-5H-pyrimido[4,5-b]indole-6-carboxamide]
5.98 | CC(C)NC(=O)C1CCc2[nH]c3ncnc(Nc4cc(Cl)ccc4OC(C)C)c3c2C1 (racemic) [Example 225, (RS)-4-{[5-Chloro-2-(propan-2-yloxy)phenyl]amino}-N-(propan-2-yl)-6,7,8,9-tetrahydro-5H-pyrimido[4,5-b]indole-6-carboxamide]
